Assay results reported in PubChem BioAssay (NCI).
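Interpolation was linear, between the two tested concentrations surrounding the appropriate level; five concentrations were tested over 48 hours in 96-well plates. Here, GI50 denotes the concentration required for 50% inhibition of growth. TGI marks complete inhibition of growth.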

Assays:
Assay in all cases: growth of human tumour cells (NCI), 48 h
IGROV1 ovarian = test system: IGROV1 ovarian
OVCAR-5 ovarian = test system: OVCAR-5 ovarian
OVCAR-8 ovarian = test system: OVCAR-8 ovarian
BT-549 breast = test system: BT-549 breast
HT29 colon = test system: HT29 colon
LOX IMVI melanoma = test system: LOX IMVI melanoma
EKVX NSCLC = test system: EKVX NSCLC
UACC-257 melanoma = test system: UACC-257 melanoma
HOP-62 NSCLC = test system: HOP-62 NSCLC
MALME-3M melanoma = test system: MALME-3M melanoma

Structure (SMILES) | TGI (IGROV1 ovarian) [µM] | TGI (OVCAR-5 ovarian) [µM] | TGI (OVCAR-8 ovarian) [µM] | TGI (BT-549 breast) [µM] | TGI (HT29 colon) [µM] | TGI (LOX IMVI melanoma) [µM] | TGI (EKVX NSCLC) [µM] | TGI (UACC-257 melanoma) [µM] | TGI (HOP-62 NSCLC) [µM] | TGI (MALME-3M melanoma) [µM] | GI50 (IGROV1 ovarian) [µM] | GI50 (OVCAR-5 ovarian) [µM] | GI50 (OVCAR-8 ovarian) [µM] | GI50 (BT-549 breast) [µM] | GI50 (HT29 colon) [µM] | GI50 (LOX IMVI melanoma) [µM] | GI50 (EKVX NSCLC) [µM] | GI50 (UACC-257 melanoma) [µM] | GI50 (HOP-62 NSCLC) [µM] | GI50 (MALME-3M melanoma) [µM]
Nc1ccc(C(=O)CC(N)C(=O)O)cc1O (stereo not given) | > 100 | > 100 | > 100 | > 100 | > 100 | > 100 | > 100 | > 100 | > 100 | > 100 | – | – | – | – | – | – | – | – | – | –
CNCCn1c(=O)c2cc(OC)c(OC)cc2c2ccc3cc4c(cc3c21)OCO4 | 2.29 | 2.6 | 6.37 | 4.37 | 1.04 | 0.173 | 5.01 | 0.854 | 1.08 | 0.812 | 0.142 | 0.195 | 0.169 | 0.263 | 0.072 | 0.0577 | 0.266 | 0.16 | 0.0705 | 0.172
CN1C(=O)N(C)C2C1NN=c1s/c(=C\c3ccc(F)cc3)c(=O)n12 (stereo not given) | > 100 | > 100 | > 100 | > 100 | > 100 | > 100 | > 100 | > 100 | > 100 | > 100 | 3.21 | 5.44 | 3.78 | 13.1 | 0.951 | 6.01 | 4.02 | 3.02 | 3.48 | 3.17
CCN(CC)C(=S)SC | > 100 | > 100 | > 100 | > 100 | > 100 | > 100 | > 100 | > 100 | > 100 | > 100 | – | – | – | – | – | – | – | – | – | –
COc1ccc2cc(-c3c(-c4ccncc4)nc(-c4ccc(S(C)(=O)=O)cc4C)n3C)ccc2c1 | > 25 | > 25 | > 25 | > 25 | > 25 | > 25 | > 25 | > 25 | > 23.9 | > 25 | 7.47 | 14.7 | 9.01 | 10.6 | 8.37 | 9.01 | 7.45 | 7.75 | 8.81 | 4.9
COc1ccc(Cn2cc3c(c2)-c2oncc2CC3)cc1 | > 100 | > 100 | > 100 | 66.1 | > 64.8 | > 100 | > 100 | > 85.1 | > 100 | 54.5 | 4.56 | 8.6 | 9.34 | 4.79 | 3.69 | 6.99 | 12.7 | 12.3 | 9.64 | 7.24
NC(=O)c1cc2c3ccccc3ccn2c1-c1ccccc1 | 33.4 | 36.7 | 16.4 | 13.1 | 9.12 | 16.2 | 45.3 | 26.5 | 18.8 | 47.9 | 0.141 | 5.6 | 0.0937 | 0.485 | 0.412 | 0.0912 | 0.396 | 11.5 | 0.446 | 16.7
CC[PH+](CC)CC.O=COC1OC([S-])C(OC=O)C(OC=O)C1OC=O.[Au+] (stereo not given) | 2.62 | 3.53 | 5.55 | 2.54 | 5.3 | 2.41 | 3.32 | 3.29 | 3.2 | 2.58 | 1.2 | 1.89 | 2.13 | 1.25 | 1.65 | 0.902 | 1.74 | 1.19 | 1.58 | 1.24
Cc1cc2c(cc1C)N(C(=O)CCl)CCN2C(=O)CCl | > 19.9 | 3.08 | 6.13 | 2.7 | 0.943 | 0.365 | 4.64 | 2.71 | 3.37 | 4.5 | 0.62 | 1.5 | 0.644 | 1.31 | 0.301 | 0.173 | 1.99 | 1.3 | 1.71 | 1.57
COc1ccc2c(c1)/C(=C\c1c(Cl)[nH]c3ccc(OC)cc13)C(=O)N2 | > 100 | > 100 | > 100 | > 100 | > 100 | 54.3 | > 100 | > 100 | 95.2 | 44.1 | 56.9 | 77.3 | 34.1 | 28.8 | 21.4 | 25.8 | 84.7 | 37.3 | 32.6 | 21
CCn1c(-c2nonc2N)nc2c(C#CC(C)(C)O)nc(OCCNC)cc21 | > 25 | 24.9 | > 25 | > 22.1 | 13.8 | > 25 | > 25 | 24.7 | > 25 | 20.6 | 8.13 | 7.99 | 7.81 | 7.17 | 6.21 | 6.88 | > 18.3 | 7.96 | 7.81 | 7.69
CC(CCC(=O)O)C(=O)O (stereo not given) | > 100 | > 100 | > 100 | > 100 | > 100 | > 100 | > 100 | > 100 | > 100 | > 100 | – | – | – | – | – | – | – | – | – | –
